How the values were obtained:
Experiment in all cases: NCI-60 one-dose screening
Format in all cases: cell-based
SN12C = settings: Homo sapiens, Renal Cancer, read-out: GI (%)
Procedure: (§1) Compounds 5a–c and 6a–o were tested using standard NCI protocols for in vitro activity at the National Cancer Institute (NCI, Bethesda, Maryland, USA), wherein compounds were tested using one single concentration of 10 μM against 60 cell lines of nine different cancer types. […] Excellent activity was observed against a single NSCLC cell line, EKVX, for compounds 5a–c (GIs = 77–86%, Table 1) with no observed activity for indoles with substituted vanillin 6a–o.
(§2) Anticancer activity was tested against 60 cancer cell lines at the NCI, Bethesda, USA. The screening process was done with a single dosage of 10 μM according to NCI protocols published on the NCI website https://dtp.cancer.gov/discovery_development/nci-60/methodology.htm.

HCT-15 = settings: Homo sapiens, HCT-15, Colon Cancer, read-out: GI (%)
Procedure: as §1, §2

NCI-H226 = settings: Homo sapiens, NCI-H226, Non-Small Cell Lung Cancer, read-out: GI (%)
Procedure: as §1, §2

IGROV1 = settings: Homo sapiens, IGROV-1, IGROV1, Ovarian Cancer, read-out: GI (%)
Procedure: as §1, §2

HL-60(TB) = settings: Homo sapiens, Leukemias, read-out: GI (%)
Procedure: as §1, §2

EKVX = settings: Homo sapiens, Non-Small Cell Lung Cancer, read-out: GI (%)
Procedure: as §1, §2

LOX IMVI = settings: Homo sapiens, Melanoma, read-out: GI (%)
Procedure: as §1, §2

MDA-MB-435 = settings: Homo sapiens, MDA-MB-435, Melanoma, read-out: GI (%)
Procedure: as §1, §2

OVCAR-5 = settings: Homo sapiens, OVCAR-5, Ovarian Cancer, read-out: GI (%)
Procedure: as §1, §2

NCI-H522 = settings: Homo sapiens, NCI-H522, Non-Small Cell Lung Cancer, read-out: GI (%)
Procedure: as §1, §2

OVCAR-8 = settings: Homo sapiens, OVCAR-8, Ovarian Cancer, read-out: GI (%)
Procedure: as §1, §2

NCI-H460 = settings: Homo sapiens, NCI-H460, Non-Small Cell Lung Cancer, read-out: GI (%)
Procedure: as §1, §2

HS 578T = settings: Homo sapiens, Breast Cancer, read-out: GI (%)
Procedure: as §1, §2

OVCAR-3 = settings: Homo sapiens, OVCAR-3, 10 μM; OVCAR-3, Ovarian Cancer; read-out: GI (%)
Procedure: as §1, §2

SK-MEL-5 = settings: Homo sapiens, SK-MEL-5, Melanoma, read-out: GI (%)
Procedure: as §1, §2

NCI/ADR-RES = settings: Homo sapiens, Ovarian Cancer, read-out: GI (%)
Procedure: as §1, §2

MCF7 = settings: Homo sapiens, MCF7, 10 μM; MCF7, Breast Cancer; read-out: GI (%)
Procedure: as §1, §2

UO-31 = settings: Homo sapiens, UO-31, Renal Cancer, read-out: GI (%)
Procedure: as §1, §2

SNB-19 = settings: Homo sapiens, SNB-19, CNS Cancer, read-out: GI (%)
Procedure: as §1, §2

SF-268 = settings: Homo sapiens, SF-268, CNS Cancer, read-out: GI (%)
Procedure: as §1, §2

MDA-MB-468 = settings: Homo sapiens, MDA-MB-468, Breast Cancer, read-out: GI (%)
Procedure: as §1, §2

CCRF-CEM = settings: Homo sapiens, Leukemias, read-out: GI (%)
Procedure: as §1, §2

RPMI-8226 = settings: Homo sapiens, RPMI-8226, Leukemias, read-out: GI (%)
Procedure: as §1, §2

MOLT-4 = settings: Homo sapiens, MOLT-4, Leukemias, read-out: GI (%)
Procedure: as §1, §2

DU-145 = settings: Homo sapiens, DU-145, Prostate Cancer, read-out: GI (%)
Procedure: as §1, §2

UACC-257 = settings: Homo sapiens, UACC-257, Melanoma, read-out: GI (%)
Procedure: as §1, §2

K-562 = settings: Homo sapiens, K562, K-562, Leukemias, read-out: GI (%)
Procedure: as §1, §2

PC-3 = settings: Homo sapiens, PC-3, Prostate Cancer, read-out: GI (%)
Procedure: as §1, §2

NCI-H23 = settings: Homo sapiens, NCI-H23, Non-Small Cell Lung Cancer, read-out: GI (%)
Procedure: as §1, §2

TK-10 = settings: Homo sapiens, TK-10, Renal Cancer, read-out: GI (%)
Procedure: as §1, §2

KM12 = settings: Homo sapiens, KM12, Colon Cancer, read-out: GI (%)
Procedure: as §1, §2

U251 = settings: Homo sapiens, U-251, U251, CNS Cancer, read-out: GI (%)
Procedure: as §1, §2

SK-MEL-28 = settings: Homo sapiens, SK-MEL-28, Melanoma, read-out: GI (%)
Procedure: as §1, §2

MALME-3M = settings: Homo sapiens, Melanoma, read-out: GI (%)
Procedure: as §1, §2

HCC-2998 = settings: Homo sapiens, HCC-2998, Colon Cancer, read-out: GI (%)
Procedure: as §1, §2

| Compound | inhibition at 10 µM (SN12C) [%] | inhibition at 10 µM (HCT-15) [%] | inhibition at 10 µM (NCI-H226) [%] | inhibition at 10 µM (IGROV1) [%] | inhibition at 10 µM (HL-60(TB)) [%] | inhibition at 10 µM (EKVX) [%] | inhibition at 10 µM (LOX IMVI) [%] | inhibition at 10 µM (MDA-MB-435) [%] | inhibition at 10 µM (OVCAR-5) [%] | inhibition at 10 µM (NCI-H522) [%] | inhibition at 10 µM (OVCAR-8) [%] | inhibition at 10 µM (NCI-H460) [%] | inhibition at 10 µM (HS 578T) [%] | inhibition at 10 µM (OVCAR-3) [%] | inhibition at 10 µM (SK-MEL-5) [%] | inhibition at 10 µM (NCI/ADR-RES) [%] | inhibition at 10 µM (MCF7) [%] | inhibition at 10 µM (UO-31) [%] | inhibition at 10 µM (SNB-19) [%] | inhibition at 10 µM (SF-268) [%] | also measured |
| --- | --- | --- | --- | --- | --- | --- | --- | --- | --- | --- | --- | --- | --- | --- | --- | --- | --- | --- | --- | --- | --- |
| COc1cc(/C=C2/C(=O)Nc3ccc(Cl)cc32)ccc1OCc1ccccc1 [6f] | 3.2 | 4.2 | 1.24 | 1.82 | 0.49 | 4.35 | -3.97 | -1.21 | -0.26 | 9.25 | -6.25 | -1.96 | 3.94 | -6.72 | 1.24 | -2.56 | 19.2 | 22.4 | 3.8 | 5.46 | inhibition at 10 µM (MDA-MB-468): 5.59%; inhibition at 10 µM (CCRF-CEM): 1.07%; inhibition at 10 µM (RPMI-8226): -5.21%; inhibition at 10 µM (MOLT-4): 3.2%; inhibition at 10 µM (DU-145): -11.6%; inhibition at 10 µM (UACC-257): -3.74%; inhibition at 10 µM (K-562): -8.73%; inhibition at 10 µM (PC-3): 10%; inhibition at 10 µM (NCI-H23): 1.55%; inhibition at 10 µM (TK-10): -15.1%; inhibition at 10 µM (KM12): -0.66%; inhibition at 10 µM (U251): 2.36%; inhibition at 10 µM (SK-MEL-28): -4.79%; inhibition at 10 µM (MALME-3M): -1.28%; inhibition at 10 µM (HCC-2998): -7.18% |
| COc1cc(/C=C2/C(=O)Nc3cc(Cl)ccc32)ccc1OCc1ccccc1 [6k] | 3.34 | 6.47 | 1.98 | 23.4 | -20.2 | 17.2 | 16.1 | -4.45 | 3.05 | 4.41 | 0.19 | 1.83 | 0.08 | -3.45 | -1.43 | -3.53 | 31 | 16.2 | 1.7 | -1.04 | inhibition at 10 µM (MDA-MB-468): 7.61%; inhibition at 10 µM (CCRF-CEM): -1.12%; inhibition at 10 µM (RPMI-8226): -4.86%; inhibition at 10 µM (MOLT-4): 4.75%; inhibition at 10 µM (DU-145): -4.08%; inhibition at 10 µM (UACC-257): -10.4%; inhibition at 10 µM (K-562): 3.86%; inhibition at 10 µM (PC-3): 6.35%; inhibition at 10 µM (NCI-H23): 2.27%; inhibition at 10 µM (TK-10): -55.6%; inhibition at 10 µM (KM12): 1.29%; inhibition at 10 µM (U251): -7.73%; inhibition at 10 µM (SK-MEL-28): -6.39%; inhibition at 10 µM (MALME-3M): 4.05%; inhibition at 10 µM (HCC-2998): 0.85% |
| COc1ccc(COc2ccc(/C=C3/C(=O)Nc4ccccc43)cc2OC)cc1 [6d] | 0.36 | -4.57 | -3.18 | -7.35 | -14.7 | 0.23 | 3.43 | -6.21 | 0.08 | 6.6 | -0.59 | -2.81 | -5.29 | -14.7 | -7.74 | -6.16 | 6 | 19.6 | 2.66 | -3 | inhibition at 10 µM (MDA-MB-468): -0.39%; inhibition at 10 µM (CCRF-CEM): -3.81%; inhibition at 10 µM (RPMI-8226): -4.4%; inhibition at 10 µM (MOLT-4): -1.85%; inhibition at 10 µM (DU-145): -8.53%; inhibition at 10 µM (UACC-257): -15.9%; inhibition at 10 µM (K-562): -0.85%; inhibition at 10 µM (PC-3): 4.22%; inhibition at 10 µM (NCI-H23): -2.85%; inhibition at 10 µM (TK-10): -13.4%; inhibition at 10 µM (KM12): -3.98%; inhibition at 10 µM (U251): -9.05%; inhibition at 10 µM (SK-MEL-28): -6.58%; inhibition at 10 µM (MALME-3M): 0.29%; inhibition at 10 µM (HCC-2998): -2.21% |
